Laboratory results from paper PMC3278557 (Pharmacological Research, 2011).

Test system: cultured neonatal rat cardiomyocytes
Test: Effects on hypoxic cardiomyocytes
Format: cell-based

SMILES | anti-hypoxic protective potency (concentration range) [nM] | cardioprotection of hypoxic cardiomyocytes (100 nM) | antagonism of the protective effect of 6 (1 nM) (antagonist at 1 μM, LDH release or PI staining)
CNC(=O)[C@H]1O[C@@H](n2cnc3c(NCc4cccc(I)c4)nc(Cl)nc32)[C@H](O)[C@@H]1O [Cl-IB-MECA, 2-chloro-N^6-(3-iodobenzyl)-5′-N-methylcarboxamidoadenosine] | ~100 | provided cardioprotection | –
CCCOC(=O)c1c(-c2ccccc2)nc(CC)c(C(=O)SCC)c1CCC [MRS1523, 5-propyl-2-ethyl-4-propyl-3-(ethylsulfanylcarbonyl)-6-phenylpyridine-5-carboxylate] | – | – | completely reversed
